Data taken from PMC3128102, “A Single Sex Pheromone Receptor Determines Chemical Response Specificity of Sexual Behavior in the Silkmoth Bombyx mori” (PLoS Genetics, 2011).

Assays:
[1] = molecular target: T1, PxOR1 coexpressed with BmOR2 (Plutella xylostella, UniProt B5MEK0); assay: electrophysiology, agonist-induced current in Xenopus oocytes; assay type: cell-based; conditions: PxOR1 with Bombyx mori co-receptor BmOR2, applied sequentially to same oocyte, n = 10, read-out: 50% effective concentration
T1 construct: coexpressed in Xenopus oocytes; mixed-species heteromeric OR complex, PxOR1 of Plutella xylostella with BmOR2 of Bombyx mori; with Odorant receptor coreceptor (Bombyx mori)
T1 sequence (B5MEK0 1-422): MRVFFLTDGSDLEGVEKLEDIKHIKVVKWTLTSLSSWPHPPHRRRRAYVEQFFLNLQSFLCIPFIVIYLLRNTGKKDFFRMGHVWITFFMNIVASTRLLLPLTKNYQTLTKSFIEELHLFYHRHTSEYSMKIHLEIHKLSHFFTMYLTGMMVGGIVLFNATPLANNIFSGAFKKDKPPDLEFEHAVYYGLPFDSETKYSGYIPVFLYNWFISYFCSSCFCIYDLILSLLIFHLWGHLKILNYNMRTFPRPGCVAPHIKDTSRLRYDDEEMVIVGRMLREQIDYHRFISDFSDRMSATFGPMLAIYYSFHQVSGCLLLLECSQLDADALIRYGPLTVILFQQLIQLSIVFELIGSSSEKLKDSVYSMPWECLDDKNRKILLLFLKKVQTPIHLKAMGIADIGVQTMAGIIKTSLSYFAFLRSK
Excerpt: electrophysiology, agonist-induced current in Xenopus oocytes on PxOR1 coexpressed with BmOR2 | PxOR1 with PxOR83 and PxOR1 with BmOR2, respectively

[2] = molecular target: T2, PxOR1 coexpressed with PxOR83 (Plutella xylostella, UniProt B5MEK0); assay: as above; assay type: cell-based; conditions: read-out: 50% effective concentration
T2 construct: coexpressed in Xenopus oocytes; heteromeric OR complex; with Odorant receptor coreceptor
T2 sequence (B5MEK0 1-422): T1 sequence (B5MEK0 1-422)
T2 sequence (D0EZE1 1-471 partner): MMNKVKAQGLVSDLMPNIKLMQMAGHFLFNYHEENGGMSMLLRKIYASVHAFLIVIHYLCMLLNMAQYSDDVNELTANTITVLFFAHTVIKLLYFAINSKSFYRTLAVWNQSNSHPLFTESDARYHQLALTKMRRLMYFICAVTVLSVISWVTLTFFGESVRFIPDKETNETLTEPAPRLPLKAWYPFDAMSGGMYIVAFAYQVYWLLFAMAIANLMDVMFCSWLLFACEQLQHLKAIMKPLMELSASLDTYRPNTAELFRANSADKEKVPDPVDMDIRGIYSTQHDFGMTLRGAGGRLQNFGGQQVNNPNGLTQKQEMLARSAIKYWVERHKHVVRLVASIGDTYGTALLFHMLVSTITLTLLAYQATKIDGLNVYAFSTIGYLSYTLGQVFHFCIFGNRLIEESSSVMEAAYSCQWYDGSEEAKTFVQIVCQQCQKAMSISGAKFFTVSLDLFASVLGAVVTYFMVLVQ

EC50 [1]: 1200 nM
EC50 [2]: 420 nM
SMILES: CCCC/C=C\CCCCCCCCCC=O [Z11-16:Ald, (Z)-11-hexadecenal]
